# Values quoted from earlier work as cited in patent US11197880B2, “Use of eriocitrin compositions for increasing GLP-1 levels” (INGREDIENTS BY NATURE, LLC, priority 2019, dated 2021).
# Test system: mice (C57BL/6J)
# [1] = mice (C57BL/6J), eriocitrin 140 mg/kg/day
# [2] = mice supplemented with eriocitrin, previous study
compound,measurement,setting,value
"C[C@@H]1O[C@@H](OC[C@H]2O[C@@H](Oc3cc(O)c4c(c3)O[C@H](c3ccc(O)c(O)c3)CC4=O)[C@H](O)[C@@H](O)[C@@H]2O)[C@H](O)[C@H](O)[C@H]1O [Eriocitrin, eriodictyol 7-O-B-rutinoside]",inflammatory markers (IL-6 and MCP-1),[1],decreased inflammatory markers
same,total antioxidant capacity,[1],increased total antioxidant capacity
same,blood glucose,[2],reduced blood glucose
same,insulin sensitivity,[2],improved insulin sensitivity
